This passage reports T/C results from ChEMBL document CHEMBL1129817, “Novel water-soluble analogues retaining potent antitumor activity of RA-VII, a cyclic hexapeptide from Rubia plants” (Bioorg Med Chem Lett, 1997).

Assay type in all cases: functional, Mus musculus
Assay [1] concerns B16. The assay can be described thus: Compound was evaluated for percent tumor volume against B16 melanoma in mice (T) at 3.13 mg/kg intravenous administration after 13 days ot that of control (C).
Assay [2] deals with B16. The assay can be described thus: Compound was evaluated for percent tumor volume against B16 melanoma in mice (T) at 3.13 mg/kg intravenous administration after 8 days ot that of control (C).
Assay [3] deals with Colon 26. The assay can be described thus: Compound was evaluated for percent tumor volume against colon 26 cells in mice (T) at a dose of 6.25 mg/kg intravenous administration after 8 days ot that of control (C).
For assay [4], the system named is B16. The assay can be described thus: Compound was evaluated for percent tumor volume against B16 melanoma in mice (T) at 1.6 mg/kg intravenous administration after 8 days ot that of control (C).
Assay [5] concerns B16. The assay can be described thus: Compound was evaluated for percent tumor volume against B16 melanoma in mice (T) at 1.6 mg/kg intravenous administration after 13 days ot that of control (C).
Assay [6] deals with P388. Briefly: Percentage of the median survival time of P388 leukemic mice (T) at intraperitoneal administration of 0.4 mg/kg dose to that of controls (C).
Assay [7] deals with Colon 26. Briefly: Compound was evaluated for percent tumor volume against colon 26 cells in mice (T) at a dose of 6.25 mg/kg intravenous administration after 10 days ot that of control (C).
In assay [8] the test system is Colon 26. Briefly: Compound was evaluated for percent tumor volume against colon 26 cells in mice (T) at a dose of 3.13 mg/kg intravenous administration after 8 days ot that of control (C).
Assay [9] deals with Colon 26. Briefly: Compound was evaluated for percent tumor volume against colon 26 cells in mice (T) at a dose of 3.13 mg/kg intravenous administration after 12 days ot that of control (C).
Assay [10] relates to Colon 26. Briefly: Compound was evaluated for percent tumor volume against colon 26 cells in mice (T) at a dose of 6.25 mg/kg intravenous administration after 12 days ot that of control (C).
The subject of assay [11] is Colon 26. The assay can be described thus: Compound was evaluated for percent tumor volume against colon 26 cells in mice (T) at a dose of 1.6 mg/kg intravenous administration after 8 days ot that of control (C).
Assay [12] has as its system P388. The assay can be described thus: Percentage of the median survival time of P388 leukemic mice (T) at intraperitoneal administration of 0.8 mg/kg dose to that of controls (C).
The subject of assay [13] is Colon 26. Briefly: Compound was evaluated for percent tumor volume against colon 26 cells in mice (T) at a dose of 1.6 mg/kg intravenous administration after 12 days ot that of control (C).
Assay [14] relates to Colon 26. The assay can be described thus: Compound was evaluated for percent tumor volume against colon 26 cells in mice (T) at a dose of 1.6 mg/kg intravenous administration after 10 days ot that of control (C).
Assay [15] has as its system P388. Briefly: Percentage of the median survival time of P388 leukemic mice (T) at intraperitoneal administration of 3.13 mg/kg dose to that of controls (C).
Assay [16] deals with B16. The assay can be described thus: Compound was evaluated for percent tumor volume against B16 melanoma in mice (T) at 1.6 mg/kg intravenous administration after 11 days ot that of control (C).
Assay [17] relates to Colon 26. Briefly: Compound was evaluated for percent tumor volume against colon 26 cells in mice (T) at a dose of 3.13 mg/kg intravenous administration after 10 days ot that of control (C).
In assay [18] the test system is P388. Briefly: Percentage of the median survival time of P388 leukemic mice (T) at intraperitoneal administration of 1.6 mg/kg dose to that of controls (C).
The subject of assay [19] is B16. The assay can be described thus: Compound was evaluated for percent tumor volume against B16 melanoma in mice (T) at 3.13 mg/kg intravenous administration after 11 days ot that of control (C).

Consider `COc1ccc(C[C@H]2C(=O)N[C@@H](C)C(=O)N(C)[C@H]3Cc4cccc(c4)Oc4cc(ccc4OC)C[C@@H](C(=O)N[C@H](C)C(=O)N[C@@H](C)C(=O)N2C)N(C)C3=O)cc1`, for which the T/C in the assay with B16 [1] worked out at 49.9%; with B16 [2], 60%; with Colon 26 [3], 49%; in the assay with B16 [4], 65.8%; in the assay with B16 [5], 85.1%; in the assay with P388 [6], 144%. Besides, the T/C in the assay on Colon 26 [7] came out at 50.3%; with Colon 26 [8], 48%; in the assay on Colon 26 [9], 85.6%; with Colon 26 [10], 78%; with Colon 26 [11], 55.8%; in the assay with P388 [12], 144%. Further, the T/C stood at 88% with Colon 26 [13]; 72.8% in the assay on Colon 26 [14]; 163% in the assay with P388 [15]; 62.4% in the assay on B16 [16]; 60.9% with Colon 26 [17]; 152% in the assay on P388 [18]. The same molecule gave a T/C in the assay on B16 [19] of 55.5%.

For orientation: T/C means the ratio of treated to control.
